Results published in patent publication US9695155B2, “Herbicidal substituted pyrimidinyloxy benzene compounds” (E. I. DU PONT DE NEMOURS AND COMPANY, priority 2013, dated 2017).

Columns and labels:
rice = experiment: Test C flooded paddy test; format: in vivo, Oryza sativa; details: Flood, scale 0 to 100 (0 no effect, 100 complete control), 13 to 15 days
Summary of the method: (§1)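 Test compounds are applied straight into paddy water held 3 cm above the soil surface, with that flood maintained for the whole test. After 13 to 15 days in the greenhouse, each species is scored visually relative to controls.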

ducksalad = experiment: Test C flooded paddy test; format: in vivo, Heteranthera limosa; details: Flood, scale 0 to 100 (0 no effect, 100 complete control), 13 to 15 days
Summary of the method: as §1

wild poinsettia = experiment: Test E postemergence; format: in vivo, Euphorbia heterophylla
Excerpt: (§2) Seeds of plant species selected from corn (Zea mays), soybean (Glycine max), velvetleaf (Abutilon theophrasti), lambsquarters (Chenopodium album), wild poinsettia (Euphorbia heterophylla), palmer pigweed (Amaranthus palmeri), waterhemp (common waterhemp, Amaranthus rudis), surinam grass (Brachiaria decumbens), large (Lg) crabgrass (Digitaria sanguinalis), Brazilian crabgrass (Digitaria horizontalis), fall panicum (Panicum dichotomiflorum), giant foxtail (Setaria faberii), green foxtail (Setaria viridis), goosegrass (Eleusine indica), johnsongrass (Sorghum halepense), ragweed (common ragweed, Ambrosia elatior), barnyardgrass (Echinochloa crus-galli), sandbur (southern sandbur, Cenchrus echinatus), arrowleaf sida (Sida rhombifolia), Italian ryegrass (Lolium multiflorum), dayflower (Virginia (VA) dayflower, Commelina virginica), field bindweed (Convolvulus arvensis), morningglory (Ipomoea coccinea), nightshade (eastern black nightshade, Solanum ptycanthum), kochia (Kochia scoparia), yellow nutsedge (Cyperus esculentus), cocklebur (common cocklebur, Xanthium strumarium), smartweed (ladysthumb smartweed, and hairy beggarticks (Bidens pilosa), were planted into a silt loam soil and treated preemergence with test chemicals formulated in a non-phytotoxic solvent mixture which included a surfactant.
(§3) At the same time, plants from these crop and weed species and also horseweed (Canada horseweed, Conyza canadensis), waterhemp_RES1, (ALS & Triazine resistant common waterhemp, Amaranthus rudis), and waterhemp_RES2, (ALS & HPPD resistant common waterhemp, Amaranthus rudis) were planted in pots containing Redi-Earth® planting medium (Scotts Company, 14111 Scottslawn Road, Marysville, Ohio 43041) comprising spaghnum peat moss, vermiculite, wetting agent and starter nutrients were treated with postemergence applications of test chemicals formulated in the same manner. Plants ranged in height from 2 to 18 cm for postemergence treatments (1- to 4-leaf stage). Treated plants and controls were maintained in a greenhouse for 14 to 21 days, after which time all species were compared to controls and visually evaluated. Plant response ratings, summarized in Table E, are based on a scale of 0 to 100 where 0 is no effect and 100 is complete control. A dash (-) response means no test result.

palmer pigweed = experiment: Test E postemergence; format: in vivo, Amaranthus palmeri
Excerpt: as §2, §3

sandbur = experiment: Test E postemergence; format: in vivo, Cenchrus echinatus
Excerpt: as §2, §3

Italian ryegrass = experiment: Test E postemergence; format: in vivo, Lolium multiflorum
Excerpt: as §2, §3

field bindweed = experiment: Test E postemergence; format: in vivo, Convolvulus arvensis
Excerpt: as §2, §3

[1] = Postemergence, 31 g ai/ha, scale 0 to 100
[2] = Postemergence, 62 g ai/ha, scale 0 to 100
[3] = Postemergence, 125 g ai/ha, scale 0 to 100
[4] = postemergence, 16 g ai/ha, scale 0 to 100, 0 no effect, 100 complete control

SMILES	Plant response rating, Rice (rice; 31 g ai/ha)	Plant response rating, Rice (rice; 62 g ai/ha)	Plant response rating, Rice (rice; 125 g ai/ha)	Plant response rating, Rice (rice; 250 g ai/ha)	Plant response rating, Ducksalad (ducksalad; 31 g ai/ha)	Plant response rating, Ducksalad (ducksalad; 62 g ai/ha)	Plant response rating, Ducksalad (ducksalad; 125 g ai/ha)	Plant response rating, Ducksalad (ducksalad; 250 g ai/ha)	other results
Fc1cccc(Oc2ncc(Cl)cn2)c1-n1cc(C(F)F)nn1 [Compound 141, 5-chloro-2-[2-[4-(difluoromethyl)-1H-1,2,3-triazol-1-yl]-3-fluorophenoxy]pyrimidine]	0	0	40	60	65	80	95	100	–
Fc1cccc(Oc2ncc(Cl)cn2)c1-n1cc(Cl)cn1 [Compound 177]	0	0	10	10	20	60	85	95	–
Clc1cnc(Oc2cccc(Cl)c2-n2cc(I)cn2)nc1 [Compound 181]	–	–	–	–	–	–	–	–	Plant response rating, Poinsettia, Wild (wild poinsettia; [1]): 50; Plant response rating, Poinsettia, Wild (wild poinsettia; [2]): 50; Plant response rating, Poinsettia, Wild (wild poinsettia; [3]): 60; Plant response rating, Poinsettia, Wild (wild poinsettia; [4]): 40; Plant response rating, Pigweed, Palmer (palmer pigweed; [1]): 70; Plant response rating, Pigweed, Palmer (palmer pigweed; [2]): 90; Plant response rating, Pigweed, Palmer (palmer pigweed; [3]): 98; Plant response rating, Pigweed, Palmer (palmer pigweed; [4]): 80; Plant response rating, Sandbur (sandbur; [1]): 15; Plant response rating, Sandbur (sandbur; [2]): 10; Plant response rating, Sandbur (sandbur; [3]): 20; Plant response rating, Sandbur (sandbur; [4]): 5; Plant response rating, Ryegrass, Italian (Italian ryegrass; [1]): 5; Plant response rating, Ryegrass, Italian (Italian ryegrass; [2]): 10; Plant response rating, Ryegrass, Italian (Italian ryegrass; [3]): 20; Plant response rating, Ryegrass, Italian (Italian ryegrass; [4]): 5; Plant response rating, Field Bindweed (field bindweed; [1]): 40; Plant response rating, Field Bindweed (field bindweed; [2]): 40; Plant response rating, Field Bindweed (field bindweed; [3]): 50; Plant response rating, Field Bindweed (field bindweed; [4]): 25
FC(F)c1cnn(-c2c(Cl)cccc2Oc2ncc(Cl)cn2)c1 [Compound 192]	0	0	0	0	0	0	70	75	–
